Reference: patent US20190231705A1, “HIGH DRUG LOAD POLYMERIC NANOPARTICLE FORMULATIONS AND METHODS OF MAKING AND USING SAME” (Merck Sharp & Dohme Corp., priority 2018, published 2019)

Assay: Solution content after 80K centrifugation
Type: physicochemical
Details: grazoprevir/HPMCAS-L nanoparticle suspension after 80k centrifugation

C=C[C@@H]1C[C@]1(NC(=O)[C@@H]1C[C@@H]2CN1C(=O)[C@H](C(C)(C)C)NC(=O)O[C@@H]1C[C@H]1CCCCCc1nc3ccc(OC)cc3nc1O2)C(=O)NS(=O)(=O)C1CC1 [grazoprevir, (1aR,5S,8S, 10R,22aR)-N-[(1R,2S)-1-[(cyclopropylsulfonamido)-carbonyl]-2-ethenylcyclopropyl]-14-methoxy-5-(2-methylpropan-2-yl)-3,6-dioxo-1,1a,3,4,5,6,9,10,18,-19,20,21,22,22a-tetradecahydro-8H-7,10-methanocyclopropa[18,19][1,10,3,6]dioxadiaza-cyclononadecino[11,12-b]quinoxaline-8-carboxamide]
% Grazoprevir in solution: 4.2%
